Source: the NIST ThermoML archive (doi:10.1016/j.jct.2013.01.013)

Assay: xn = mol fraction of the nth substance listed
Conditions: 101 kPa, Liquid; for viscosity: Capillary tube (Ostwald / Ubbelohde) method; for speed of sound: Linear variable-path acoustic interferometer; for mass density: Pycnometric method

C=C(C)C(=O)OC [methyl methacrylate] + CC(=O)N(C)C
Conditions | mass density [kg/m3] | speed of sound [m/s] | viscosity [mPa·s]
288.15 K, x1 = 0.0714 | 946.01 | 1484.2 | 1.103
288.15 K, x1 = 0.144 | 946.49 | 1468.6 | 1.057
288.15 K, x1 = 0.2125 | 946.92 | 1452.9 | 1.016
288.15 K, x1 = 0.2823 | 947.31 | 1435.8 | 0.9751
288.15 K, x1 = 0.3568 | 947.69 | 1416.2 | 0.9339
288.15 K, x1 = 0.4318 | 948.02 | 1394.9 | 0.8939
288.15 K, x1 = 0.5046 | 948.31 | 1372.8 | 0.856
288.15 K, x1 = 0.5769 | 948.54 | 1349.9 | 0.8196
288.15 K, x1 = 0.6512 | 948.73 | 1325.5 | 0.7835
288.15 K, x1 = 0.7205 | 948.88 | 1302.7 | 0.7513
288.15 K, x1 = 0.7845 | 948.97 | 1282.2 | 0.7228
288.15 K, x1 = 0.8558 | 949.03 | 1259.7 | 0.6927
288.15 K, x1 = 0.9281 | 949.07 | 1237.5 | 0.6628
288.15 K, x1 = 1 | 949.1 | 1216.8 | 0.634
293.15 K, x1 = 0.0714 | 941.45 | 1467.3 | 0.9972
293.15 K, x1 = 0.144 | 941.87 | 1452.1 | 0.957
293.15 K, x1 = 0.2125 | 942.23 | 1436.6 | 0.9207
293.15 K, x1 = 0.2823 | 942.55 | 1419.2 | 0.8852
293.15 K, x1 = 0.3568 | 942.84 | 1399.5 | 0.8487
293.15 K, x1 = 0.4318 | 943.08 | 1378.3 | 0.8137
293.15 K, x1 = 0.5046 | 943.28 | 1356.3 | 0.7808
293.15 K, x1 = 0.5769 | 943.43 | 1333.1 | 0.7494
293.15 K, x1 = 0.6512 | 943.52 | 1308.9 | 0.7183
293.15 K, x1 = 0.7205 | 943.58 | 1286.3 | 0.691
293.15 K, x1 = 0.7845 | 943.59 | 1266 | 0.6666
293.15 K, x1 = 0.8558 | 943.54 | 1243.5 | 0.6409
293.15 K, x1 = 0.9281 | 943.46 | 1221.3 | 0.6153
293.15 K, x1 = 1 | 943.37 | 1200.5 | 0.5903
298.15 K, x1 = 0.0714 | 936.89 | 1448.2 | 0.9087
298.15 K, x1 = 0.144 | 937.25 | 1433.9 | 0.8736
298.15 K, x1 = 0.2125 | 937.54 | 1418.5 | 0.8414
298.15 K, x1 = 0.2823 | 937.79 | 1400.8 | 0.8102
298.15 K, x1 = 0.3568 | 937.99 | 1381 | 0.7782
298.15 K, x1 = 0.4318 | 938.14 | 1359.8 | 0.7473
298.15 K, x1 = 0.5046 | 938.25 | 1338 | 0.7186
298.15 K, x1 = 0.5769 | 938.31 | 1315.4 | 0.6915
298.15 K, x1 = 0.6512 | 938.31 | 1291.5 | 0.665
298.15 K, x1 = 0.7205 | 938.28 | 1269.3 | 0.6416
298.15 K, x1 = 0.7845 | 938.21 | 1248.9 | 0.6207
298.15 K, x1 = 0.8558 | 938.05 | 1226.9 | 0.5983
298.15 K, x1 = 0.9281 | 937.85 | 1204.6 | 0.5763
298.15 K, x1 = 1 | 937.63 | 1183.6 | 0.5544
303.15 K, x1 = 0.0714 | 932.33 | 1429.5 | 0.8475
303.15 K, x1 = 0.144 | 932.63 | 1415.5 | 0.8152
303.15 K, x1 = 0.2125 | 932.85 | 1400.7 | 0.7858
303.15 K, x1 = 0.2823 | 933.03 | 1383.5 | 0.7573
303.15 K, x1 = 0.3568 | 933.14 | 1363.9 | 0.7278
303.15 K, x1 = 0.4318 | 933.2 | 1342.9 | 0.6995
303.15 K, x1 = 0.5046 | 933.22 | 1321.2 | 0.6733
303.15 K, x1 = 0.5769 | 933.19 | 1298.9 | 0.649
303.15 K, x1 = 0.6512 | 933.1 | 1275.4 | 0.6253
303.15 K, x1 = 0.7205 | 932.98 | 1253.7 | 0.6042
303.15 K, x1 = 0.7845 | 932.82 | 1233.8 | 0.5853
303.15 K, x1 = 0.8558 | 932.56 | 1211.8 | 0.565
303.15 K, x1 = 0.9281 | 932.24 | 1189.9 | 0.545
303.15 K, x1 = 1 | 931.89 | 1168.5 | 0.5251
308.15 K, x1 = 0.0714 | 927.77 | 1409.8 | 0.789
308.15 K, x1 = 0.144 | 928.01 | 1396.4 | 0.7601
308.15 K, x1 = 0.2125 | 928.16 | 1382.1 | 0.7332
308.15 K, x1 = 0.2823 | 928.26 | 1365.2 | 0.7071
308.15 K, x1 = 0.3568 | 928.29 | 1345.7 | 0.68
308.15 K, x1 = 0.4318 | 928.26 | 1324.8 | 0.654
308.15 K, x1 = 0.5046 | 928.19 | 1303.4 | 0.6305
308.15 K, x1 = 0.5769 | 928.07 | 1281.5 | 0.6082
308.15 K, x1 = 0.6512 | 927.89 | 1258.5 | 0.5867
308.15 K, x1 = 0.7205 | 927.68 | 1237.5 | 0.5678
308.15 K, x1 = 0.7845 | 927.43 | 1217.7 | 0.5507
308.15 K, x1 = 0.8558 | 927.07 | 1196.1 | 0.5325
308.15 K, x1 = 0.9281 | 926.63 | 1174.2 | 0.514
308.15 K, x1 = 1 | 926.15 | 1152.6 | 0.496
313.15 K, x1 = 0.0714 | 923.21 | 1392.2 | 0.743
313.15 K, x1 = 0.144 | 923.38 | 1379.6 | 0.7165
313.15 K, x1 = 0.2125 | 923.46 | 1365.5 | 0.6916
313.15 K, x1 = 0.2823 | 923.49 | 1348.6 | 0.6671
313.15 K, x1 = 0.3568 | 923.44 | 1328.3 | 0.6422
313.15 K, x1 = 0.4318 | 923.32 | 1306.9 | 0.6183
313.15 K, x1 = 0.5046 | 923.16 | 1285.6 | 0.5963
313.15 K, x1 = 0.5769 | 922.95 | 1263.9 | 0.5759
313.15 K, x1 = 0.6512 | 922.68 | 1241.1 | 0.5562
313.15 K, x1 = 0.7205 | 922.38 | 1220.1 | 0.5387
313.15 K, x1 = 0.7845 | 922.04 | 1200.9 | 0.523
313.15 K, x1 = 0.8558 | 921.57 | 1179 | 0.506
313.15 K, x1 = 0.9281 | 921.01 | 1157.2 | 0.4891
313.15 K, x1 = 1 | 920.41 | 1135.4 | 0.4723
318.15 K, x1 = 0.0714 | 918.65 | 1374.5 | 0.7095
318.15 K, x1 = 0.144 | 918.75 | 1362.8 | 0.6842
318.15 K, x1 = 0.2125 | 918.76 | 1348.2 | 0.6607
318.15 K, x1 = 0.2823 | 918.72 | 1330.9 | 0.6374
318.15 K, x1 = 0.3568 | 918.59 | 1310.1 | 0.6135
318.15 K, x1 = 0.4318 | 918.38 | 1288.6 | 0.5905
318.15 K, x1 = 0.5046 | 918.13 | 1267.2 | 0.5693
318.15 K, x1 = 0.5769 | 917.83 | 1245.9 | 0.5497
318.15 K, x1 = 0.6512 | 917.47 | 1223.7 | 0.5307
318.15 K, x1 = 0.7205 | 917.08 | 1202.8 | 0.5141
318.15 K, x1 = 0.7845 | 916.65 | 1184 | 0.4991
318.15 K, x1 = 0.8558 | 916.07 | 1162.4 | 0.4828
318.15 K, x1 = 0.9281 | 915.39 | 1140.2 | 0.4662
318.15 K, x1 = 1 | 914.66 | 1118.3 | 0.4499
